Assays:
Experiment in all cases: relative viability (nuclei count vs DMSO), 5 days (fraction); higher = more cells survive
RERF-LC-KJ = tested on: RERF-LC-KJ
Summary of the method: (§1)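 Cells from lung cancer lines were seeded into 1536-well plates and, one day later, dosed by pin tool. Treatments were either a single drug or a fixed dose of an anchor drug with five library-drug doses (not always all listed) in √10 steps. After 5 days, nuclei were stained in a one-step fixation (final 0.05% Triton X-100, 1% formaldehyde, 1 ug/ml Hoechst) and counted on 4× images, and relative viability is the treated-to-vehicle nuclei ratio, as the median of duplicate plates.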

UMC-11 = tested on: UMC-11
Summary of the method: as §1

NCI-H2087 = tested on: NCI-H2087
Summary of the method: as §1

SK-MES-1 = tested on: SK-MES-1
Summary of the method: as §1

BEN = tested on: BEN
Summary of the method: as §1

LC-2-ad = tested on: LC-2-ad
Summary of the method: as §1

NCI-H1395 = tested on: NCI-H1395
Summary of the method: as §1

201T = tested on: 201T
Summary of the method: as §1

LXF-289 = tested on: LXF-289
Summary of the method: as §1

NCI-H2170 = tested on: NCI-H2170
Summary of the method: as §1

HARA = tested on: HARA
Summary of the method: as §1

HOP-62 = tested on: HOP-62
Summary of the method: as §1

LOU-NH91 = tested on: LOU-NH91
Summary of the method: as §1

COR-L 105 = tested on: COR-L 105
Summary of the method: as §1

H3255 = tested on: H3255
Summary of the method: as §1

NCI-H1993 = tested on: NCI-H1993
Summary of the method: as §1

HCC-78 = tested on: HCC-78
Summary of the method: as §1

EMC-BAC-2 = tested on: EMC-BAC-2
Summary of the method: as §1

LU99A = tested on: LU99A
Summary of the method: as §1

NCI-H2126 = tested on: NCI-H2126
Summary of the method: as §1

SW 900 = tested on: SW 900
Summary of the method: as §1

NCI-H650 = tested on: NCI-H650
Summary of the method: as §1

CN1CCN(CCOc2cc(OC3CCOCC3)c3c(Nc4c(Cl)ccc5c4OCO5)ncnc3c2)CC1 [Saracatinib] + O=C(CCCCCCC(=O)Nc1ccccc1)NO [Vorinostat] (partner 1 µM)
relative viability (RERF-LC-KJ; first compound 0.02 µM): 0.87
relative viability (RERF-LC-KJ; first compound 0.2 µM): 0.729
relative viability (RERF-LC-KJ; first compound 0.6325 µM): 0.753
relative viability (RERF-LC-KJ; first compound 2 µM): 0.589
relative viability (UMC-11; first compound 0.02 µM): 0.376
relative viability (UMC-11; first compound 0.2 µM): 0.363
relative viability (UMC-11; first compound 0.6325 µM): 0.388
relative viability (UMC-11; first compound 2 µM): 0.253
relative viability (NCI-H2087; first compound 0.02 µM): 0.696
relative viability (NCI-H2087; first compound 0.2 µM): 0.564
relative viability (NCI-H2087; first compound 0.6325 µM): 0.54
relative viability (NCI-H2087; first compound 2 µM): 0.95
relative viability (SK-MES-1; first compound 0.02 µM): 1.17
relative viability (SK-MES-1; first compound 0.2 µM): 1.05
relative viability (SK-MES-1; first compound 0.6325 µM): 1.17
relative viability (SK-MES-1; first compound 2 µM): 0.83
relative viability (BEN; first compound 0.02 µM): 0.54
relative viability (BEN; first compound 0.2 µM): 0.57
relative viability (BEN; first compound 0.6325 µM): 0.54
relative viability (BEN; first compound 2 µM): 0.576
relative viability (LC-2-ad; first compound 0.02 µM): 0.757
relative viability (LC-2-ad; first compound 0.2 µM): 0.668
relative viability (LC-2-ad; first compound 0.6325 µM): 0.777
relative viability (LC-2-ad; first compound 2 µM): 0.68
relative viability (NCI-H1395; first compound 0.02 µM): 0.766
relative viability (NCI-H1395; first compound 0.2 µM): 0.632
relative viability (NCI-H1395; first compound 0.6325 µM): 0.706
relative viability (NCI-H1395; first compound 2 µM): 0.464
relative viability (201T; first compound 0.02 µM): 0.971
relative viability (201T; first compound 0.2 µM): 0.868
relative viability (201T; first compound 0.6325 µM): 0.799
relative viability (201T; first compound 2 µM): 0.658
relative viability (LXF-289; first compound 0.02 µM): 0.78
relative viability (LXF-289; first compound 0.2 µM): 0.573
relative viability (LXF-289; first compound 0.6325 µM): 0.773
relative viability (LXF-289; first compound 2 µM): 0.715
relative viability (NCI-H2170; first compound 0.02 µM): 0.746
relative viability (NCI-H2170; first compound 0.2 µM): 0.678
relative viability (NCI-H2170; first compound 0.6325 µM): 0.93
relative viability (NCI-H2170; first compound 2 µM): 0.571
relative viability (HARA; first compound 0.02 µM): 0.505
relative viability (HARA; first compound 0.2 µM): 0.654
relative viability (HARA; first compound 0.6325 µM): 0.62
relative viability (HARA; first compound 2 µM): 0.572
relative viability (HOP-62; first compound 0.02 µM): 0.624
relative viability (HOP-62; first compound 0.2 µM): 0.611
relative viability (HOP-62; first compound 0.6325 µM): 0.769
relative viability (HOP-62; first compound 2 µM): 0.618
relative viability (LOU-NH91; first compound 0.02 µM): 0.87
relative viability (LOU-NH91; first compound 0.2 µM): 0.696
relative viability (LOU-NH91; first compound 0.6325 µM): 0.903
relative viability (LOU-NH91; first compound 2 µM): 0.628
relative viability (COR-L 105; first compound 0.02 µM): 0.879
relative viability (COR-L 105; first compound 0.2 µM): 0.668
relative viability (COR-L 105; first compound 0.6325 µM): 0.819
relative viability (COR-L 105; first compound 2 µM): 0.625
relative viability (H3255; first compound 0.02 µM): 0.79
relative viability (H3255; first compound 0.2 µM): 0.684
relative viability (H3255; first compound 0.6325 µM): 0.965
relative viability (H3255; first compound 2 µM): 0.337
relative viability (NCI-H1993; first compound 0.02 µM): 0.806
relative viability (NCI-H1993; first compound 0.2 µM): 0.651
relative viability (NCI-H1993; first compound 0.6325 µM): 0.874
relative viability (NCI-H1993; first compound 2 µM): 0.533
relative viability (HCC-78; first compound 0.02 µM): 0.459
relative viability (HCC-78; first compound 0.6325 µM): 0.476
relative viability (HCC-78; first compound 2 µM): 0.427
relative viability (EMC-BAC-2; first compound 0.02 µM): 0.417
relative viability (EMC-BAC-2; first compound 0.2 µM): 0.43
relative viability (EMC-BAC-2; first compound 0.6325 µM): 0.417
relative viability (EMC-BAC-2; first compound 2 µM): 0.291
relative viability (LU99A; first compound 0.02 µM): 0.445
relative viability (LU99A; first compound 0.2 µM): 0.339
relative viability (LU99A; first compound 0.6325 µM): 0.418
relative viability (LU99A; first compound 2 µM): 0.404
relative viability (NCI-H2126; first compound 0.02 µM): 0.936
relative viability (NCI-H2126; first compound 0.2 µM): 0.647
relative viability (NCI-H2126; first compound 0.6325 µM): 0.713
relative viability (NCI-H2126; first compound 2 µM): 0.539
relative viability (SW 900; first compound 0.02 µM): 0.683
relative viability (SW 900; first compound 0.2 µM): 0.407
relative viability (SW 900; first compound 0.6325 µM): 0.676
relative viability (SW 900; first compound 2 µM): 0.367
relative viability (NCI-H650; first compound 0.02 µM): 0.5
relative viability (NCI-H650; first compound 0.2 µM): 0.365
relative viability (NCI-H650; first compound 0.6325 µM): 0.384
relative viability (NCI-H650; first compound 2 µM): 0.857

— the supplement of paper PMC10307832
